In BindingDB's records for patent US20240148821 (Chugai Seiyaku Kabushiki Kaisha, 2024):
Numbered stars: 1 amine (or outer) side, 2 acyl side, 3 side chain; on linkers, the order of the positions; unused ones are H or OH. Bridge positions count the residues as written; N and C are the ends. Square brackets hold non-standard residues; d marks the D form. Peptide text beside a SMILES is read from it. * marks the point of attachment. hPhe(3-Cl-4-CF3) = N[C@@H](CCc1ccc(C(F)(F)F)c(Cl)c1)C(=O)O; hPhe(3-F,4-CF3) = N[C@@H](CCc1ccc(C(F)(F)F)c(F)c1)C(=O)O; X134 = CN([C@@H](Cc1ccc(C#N)nc1)C(=O)[*:2])[*:1]; NMeTyr(3-F) = CN[C@@H](Cc1ccc(O)c(F)c1)C(=O)O; NMeGly(cBu) = CN[C@H](C(=O)O)C1CCC1; NMeCha = CN[C@@H](CC1CCCCC1)C(=O)O; cisHyp = O=C(O)[C@@H]1C[C@H](O)CN1; X108 = O=C(CN(c1ccsc1)[*:1])[*:2]; NMeChg = CN[C@H](C(=O)O)C1CCCCC1; NMeD = CN[C@@H](CC(=O)O)C(=O)O; NMeL = CN[C@@H](CC(C)C)C(=O)O; NMeA = CN[C@@H](C)C(=O)O; Piperidide = C1CCN(*)CC1; Ac5c = NC1(C(=O)O)CCCC1; Nlys = NCCCCNCC(=O)O; Meb = Cc1ccc(C*)cc1; Sar = CNCC(=O)O

Target: GTPase KRas (G12D) and Son of Sevenless Homolog 1 (SOS) (Homo sapiens, UniProt P01116, G12D)
Sequence (P01116 whole entry G12D): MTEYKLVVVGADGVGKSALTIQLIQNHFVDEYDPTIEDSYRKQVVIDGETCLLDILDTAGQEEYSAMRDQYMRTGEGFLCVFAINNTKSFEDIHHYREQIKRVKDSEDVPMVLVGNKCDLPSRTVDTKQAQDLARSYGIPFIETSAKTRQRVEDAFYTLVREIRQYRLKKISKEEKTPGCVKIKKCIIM
Sequence (Q07889 whole entry, further chain): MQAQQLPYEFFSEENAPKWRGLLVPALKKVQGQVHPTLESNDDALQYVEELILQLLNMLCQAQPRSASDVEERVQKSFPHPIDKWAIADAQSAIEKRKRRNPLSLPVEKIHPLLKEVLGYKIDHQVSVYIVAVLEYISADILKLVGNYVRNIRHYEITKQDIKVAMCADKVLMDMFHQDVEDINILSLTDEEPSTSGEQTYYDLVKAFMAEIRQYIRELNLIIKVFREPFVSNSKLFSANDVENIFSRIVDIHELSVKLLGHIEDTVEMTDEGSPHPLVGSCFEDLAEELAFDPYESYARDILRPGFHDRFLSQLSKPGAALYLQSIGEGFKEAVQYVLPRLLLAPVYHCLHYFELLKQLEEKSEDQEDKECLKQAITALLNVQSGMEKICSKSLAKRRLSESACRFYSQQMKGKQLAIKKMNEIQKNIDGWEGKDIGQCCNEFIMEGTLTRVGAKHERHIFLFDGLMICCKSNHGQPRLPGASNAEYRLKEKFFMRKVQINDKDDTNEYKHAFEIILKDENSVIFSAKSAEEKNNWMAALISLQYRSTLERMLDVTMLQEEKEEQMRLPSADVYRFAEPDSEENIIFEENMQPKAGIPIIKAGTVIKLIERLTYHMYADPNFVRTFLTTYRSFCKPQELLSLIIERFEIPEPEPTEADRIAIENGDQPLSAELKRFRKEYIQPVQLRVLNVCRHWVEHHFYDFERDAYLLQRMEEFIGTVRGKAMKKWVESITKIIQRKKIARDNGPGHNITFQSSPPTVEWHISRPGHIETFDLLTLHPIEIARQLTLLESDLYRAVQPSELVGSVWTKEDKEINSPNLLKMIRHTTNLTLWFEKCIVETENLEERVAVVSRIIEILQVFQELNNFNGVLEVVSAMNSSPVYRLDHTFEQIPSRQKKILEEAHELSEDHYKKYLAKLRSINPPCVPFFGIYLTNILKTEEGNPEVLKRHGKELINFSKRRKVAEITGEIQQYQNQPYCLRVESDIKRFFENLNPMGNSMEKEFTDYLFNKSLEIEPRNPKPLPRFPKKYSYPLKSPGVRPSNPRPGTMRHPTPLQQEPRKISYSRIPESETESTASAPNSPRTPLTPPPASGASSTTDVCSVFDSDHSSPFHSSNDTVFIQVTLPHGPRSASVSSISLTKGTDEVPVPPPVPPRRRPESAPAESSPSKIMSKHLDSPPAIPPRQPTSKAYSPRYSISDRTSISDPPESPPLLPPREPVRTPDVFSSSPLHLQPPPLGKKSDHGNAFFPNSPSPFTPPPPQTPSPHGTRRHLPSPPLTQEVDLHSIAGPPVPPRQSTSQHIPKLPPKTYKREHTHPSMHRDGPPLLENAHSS
Experiment: AlphaScreen Assay
Experimental: Protein-protein interaction inhibition (PPI) between Kras and SOS1 was measured by energy transfer from nickel-conjugated donor beads to streptavidin-conjugated acceptor beads using biotin-tagged human Kras expressed in E. coli and loaded with GDP after purification and His-tagged human SOS1 enzyme. This measurement utilizes the phenomenon in which donor beads are irradiated with light at 680 nm, such that energy is transferred to acceptor beads through singlet oxygen and light at 520-620 nm is detected from the acceptor beads.

IC50 [nM]	SMILES
6.1	CC[C@H](C)[C@@H]1NC(=O)[C@H](CC(C)C)N(C)C(=O)C[C@@H](C(=O)N2CCCCC2)N(C)C(=O)[C@H](C2CCCCC2)N(C)C(=O)C2(CCCC2)NC(=O)[C@H](Cc2ccc(C#N)nc2)N(C)C(=O)[C@H](CCc2ccc(C(F)(F)F)c(Cl)c2)NC(=O)CN(C)C(=O)[C@H](CC2CCCCC2)N(C)C(=O)CN(C)C(=O)CN(C)C1=O [US20240148821, Compound 2169] ([NMeL]I[Sar][Sar][NMeCha][Sar][hPhe(3-Cl-4-CF3)][X134][Ac5c][NMeChg][NMeD]-Piperidide; lactam N-11)
69	CC[C@H](C)[C@@H]1NC(=O)[C@H](CC(C)C)N(C)C(=O)C[C@@H](C(=O)N2CCCCC2)N(C)C(=O)[C@H](C2CCCCC2)N(C)C(=O)C2(CCCC2)NC(=O)[C@H](Cc2ccc(O)c(F)c2)N(C)C(=O)[C@H](CCc2ccc(C(F)(F)F)c(Cl)c2)NC(=O)CN(C)C(=O)[C@H](CC2CCCCC2)N(C)C(=O)CN(C)C(=O)CN(C)C1=O [US20240148821, Compound 2170] ([NMeL]I[Sar][Sar][NMeCha][Sar][hPhe(3-Cl-4-CF3)][NMeTyr(3-F)][Ac5c][NMeChg][NMeD]-Piperidide; lactam N-11)

Further lines, the compound ahead of its results:

SMILES	IC50 [nM]
CC[C@H](C)[C@@H]1NC(=O)[C@H](CC(C)C)N(C)C(=O)C[C@@H](C(=O)N2CCCCC2)N(C)C(=O)[C@H](CC(C)C)N(C)C(=O)C2(CCCC2)NC(=O)[C@@H]2C[C@H](OCc3ccc(C)cc3)CN2C(=O)[C@H](CCc2ccc(C(F)(F)F)c(F)c2)NC(=O)CN(C)C(=O)[C@H](CC2CCCCC2)N(C)C(=O)CN(C)C(=O)CN(C)C1=O [US20240148821, Compound 2140] ([NMeL]I[Sar][Sar][NMeCha][Sar][hPhe(3-F,4-CF3)][cisHyp](Meb)[Ac5c][NMeL][NMeD]-Piperidide; lactam N-11)	32
CC[C@H](C)[C@@H]1NC(=O)[C@H](C)N(C)C(=O)C[C@@H](C(=O)N2CCCCC2)N(C)C(=O)[C@H](C2CCC2)N(C)C(=O)C2(CCCC2)NC(=O)CN(c2ccsc2)C(=O)[C@H](CCc2ccc(C(F)(F)F)c(Cl)c2)NC(=O)CN(C)C(=O)[C@H](CC2CCCCC2)N(C)C(=O)CN(C)C(=O)CN(C)C1=O [US20240148821, Compound 2149] ([NMeA]I[Sar][Sar][NMeCha][Sar][hPhe(3-Cl-4-CF3)][X108][Ac5c][NMeGly(cBu)][NMeD]-Piperidide; lactam N-11)	4
CC[C@H](C)[C@@H]1NC(=O)[C@H](CC(C)C)N(C)C(=O)C[C@@H](C(=O)N2CCCCC2)N(C)C(=O)[C@H](C2CCCCC2)N(C)C(=O)C2(CCCC2)NC(=O)CN(CCCCN)C(=O)[C@H](CCc2ccc(C(F)(F)F)c(Cl)c2)NC(=O)CN(C)C(=O)[C@H](CC2CCCCC2)N(C)C(=O)CN(C)C(=O)CN(C)C1=O [US20240148821, Compound 2186] ([NMeL]I[Sar][Sar][NMeCha][Sar][hPhe(3-Cl-4-CF3)][Nlys][Ac5c][NMeChg][NMeD]-Piperidide; lactam N-11)	7.5
